Data: ChEMBL document CHEMBL2385056, “Imidazopyrazine Derivatives As Inhibitors of mTOR” (ACS Med Chem Lett, 2013)

How the values were obtained:
[1] = Inhibition of mTORC2 in human PC3 cells assessed as reduction of phosphorylated AKT Ser473 level after 90 mins by HTRF assay; assay type: cell-based; conditions: PC-3, 1.5 h
mTORC1 = mTORC1 (Homo sapiens, UniProt P42345); assay: Inhibition of mTORC1 in human PC3 cells assessed as reduction of phosphorylated 4E-BP1Thr37/46 level after 90 mins by HTRF assay; assay type: cell-based, PC-3

Row | SMILES | IC50 [1] [µM] | IC50 (mTORC1) [µM]
1 | Nc1nc([C@@H]2C[C@H]3CC[C@@H](C2)N3C(=O)c2nnc[nH]2)cn2c(-c3ccc(-c4ncc[nH]4)nc3)cnc12 | > 10 | > 10
2 | Nc1nc([C@@H]2C[C@H]3CC[C@@H](C2)N3C(=O)c2nnc[nH]2)cn2c(-c3ccc(-c4ccccc4)nc3)cnc12 | 0.001 | 0.1
3 | Nc1nc([C@@H]2C[C@H]3CC[C@@H](C2)N3C(=O)CO)cn2c(-c3ccc(-c4ccccc4)nc3)cnc12 | 0.1 | 0.1
4 | Cn1ccc(-c2ccc(-c3cnc4c(N)nc([C@@H]5C[C@H]6CC[C@@H](C5)N6C(=O)c5nnc[nH]5)cn34)cn2)n1 | 1 | 1
5 | Nc1nc([C@@H]2C[C@H]3CC[C@@H](C2)N3C(=O)c2nnc[nH]2)cn2c(-c3cnn(-c4ccccc4)c3)cnc12 | 1.14 | 1.86
